Like-named read-outs stand apart in the source and are kept apart here.
Experiments:
Solubility in water = type: physicochemical; conditions: water, 25 °C, water
MAXF 401 = MAXF 401 breast tumour xenograft in nude mice; type: in vivo
Procedure: All the tests were carried out using female nude mice under standard conditions for the keeping of animals with controlled illumination and temperature. The animals were given water and food as desired.
(§1) The increase in the volume of the individual tumours was measured using microcallipers, and the size of the tumour was calculated according to the formula a*b^2/2 (where a is the largest diameter of the tumour and b is the vertical axis). When the tumour volume had increased to 80-120 mm^3, the animals were allocated at random into test groups of in each case 6 animals.
The test compounds (in the form of sodium salts) were dissolved in a saline solution, and 5% Klucel (hydroxypropylcellulose) was added in order to dissolve all the test compounds in the same carrier. […] A volume of 10 ml/kg body weight was injected. Animals that received only the carrier served as control. The test compounds were treated according to the scheme of twice weekly administration over a period of […]. The tumour volume and the body weight were checked twice weekly, and the relative tumour volumes were calculated as the ratio of tumour size to body weight.
On the basis of the relative tumour volumes of the animals treated with the test compounds compared with the tumour volumes of the controls treated only with the carrier, the T/C values were calculated and were used as the index of anti-tumour activity.
Subcutaneous implantation of the tumour and the determination of the tumour volume were carried out as described hereinbefore. The above-mentioned salts of the test substance were administered by ip injection twice weekly in the mentioned doses in the form of an aqueous solution, over a period of 4 weeks. […]
(§2) Subcutaneous implantation of the tumour and the determination of tumour volumes were carried out as described hereinbefore. The test substance was administered by ip injection twice weekly in the mentioned doses in the form of the sodium salt as an aqueous solution, over a period of 4 weeks.

BXF 1218 = assay: Xenograft tumour panel, BXF 1218 (bladder); type: in vivo, nude mice; conditions: 450-540 mg/kg ip twice weekly, 7 d (control ended early); n.s.
Procedure: as §1, with “Breast tumours (MAXF 401) were implanted subcutaneously into the rear members of the mice aged 10 weeks. The” for “The”
(§3) To this end, xenografts of human tumours derived from prostate, uterine, lung, pancreatic, bladder and “head and neck” cancers were implanted in nude mice. The implantation and the determination of tumour volumes were carried out as described hereinbefore. Groups of 5 to 8 animals were used. The test substance was administered by ip injection twice weekly in the mentioned doses in the form of the sodium salt as an aqueous solution.
(§4) The tumour xenografts used, the doses used, the duration of the therapy and a classification of observed anti-tumour actions are summarised in Table 2 below.

CXF 280 = CXF 280 colon carcinoma xenograft model; type: in vivo, nude mice
Procedure: as §1, with “Breast tumours (MAXF 401) were implanted subcutaneously into the rear members of the mice aged 10 weeks. The” for “The”
as §3, §4
as §2, with “weeks. Groups of in each case 8 animals were used.” for “weeks.”

HNXF 536 = assay: Xenograft tumour panel, HNXF 536 (head & neck); type: in vivo, nude mice; conditions: 450-540 mg/kg ip twice weekly, 28 d
Procedure: as §1, with “Breast tumours (MAXF 401) were implanted subcutaneously into the rear members of the mice aged 10 weeks. The” for “The”
as §3, §4

LXFL 529 = assay: Xenograft tumour panel, LXFL 529 (lung); type: in vivo, nude mice; conditions: 450-540 mg/kg ip twice weekly, 10 d (control ended early)
Procedure: as §1, with “Breast tumours (MAXF 401) were implanted subcutaneously into the rear members of the mice aged 10 weeks. The” for “The”
as §3, §4

MEXF 462 = MEXF 462 melanoma xenograft model; type: in vivo, nude mice; conditions: for tumour volume in % of the tumour volume at the beginning of the test, Mean: 300 mg/kg ip twice weekly
Procedure: as §1, with “Breast tumours (MAXF 401) were implanted subcutaneously into the rear members of the mice aged 10 weeks. The” for “The”, “animals. […]” for “animals.”
The anti-tumour activity of the compounds was determined in the MEXF 462 xenograft tumour model in the nude mouse. Subcutaneous implantation of the tumour and the determination of tumour volumes were carried out as described hereinbefore. Groups of in each case 8 animals were used.
Equimolar amounts of the compound of Example 8 were administered ip twice weekly in the form of a 5% DMSO solution over the mentioned period.
The progression over time of the anti-tumour action, expressed in % of the tumour volume at the beginning of the test, over the period of therapy is shown in Table 3.

MEXF 276 = assay: Xenograft tumour panel, MEXF 276 (melanoma); type: in vivo, nude mice; conditions: 450-540 mg/kg ip twice weekly, 21 d (control ended early)
PAXF 1657 = assay: Xenograft tumour panel, PAXF 1657 (pancreas); type: in vivo, nude mice; conditions: 450-540 mg/kg ip twice weekly, 21 d (control ended early); n.s.
Procedure: as §1, with “Breast tumours (MAXF 401) were implanted subcutaneously into the rear members of the mice aged 10 weeks. The” for “The”
as §3, §4

PRXF 22RV1 = assay: Xenograft tumour panel, PRXF 22RV1 (prostate); type: in vivo, nude mice; conditions: 450-540 mg/kg ip twice weekly, 28 d
Procedure: as §1, with “Breast tumours (MAXF 401) were implanted subcutaneously into the rear members of the mice aged 10 weeks. The” for “The”
as §3, §4

PRXF DU145 = assay: Xenograft tumour panel, PRXF DU145 (prostate); type: in vivo, nude mice; conditions: 385-590 mg/kg ip twice weekly, 28 d
Procedure: as §1, with “Breast tumours (MAXF 401) were implanted subcutaneously into the rear members of the mice aged 10 weeks. The” for “The”
as §3, §4

UXF 1138 = assay: Xenograft tumour panel, UXF 1138 (uterus); type: in vivo, nude mice; conditions: 450-540 mg/kg ip twice weekly, 21 d (control ended early)
Procedure: as §1, with “Breast tumours (MAXF 401) were implanted subcutaneously into the rear members of the mice aged 10 weeks. The” for “The”
as §3, §4

Tumour-carrying mice = assay: Nephrological tolerability (kidney post-mortem and histology); type: in vivo
Procedure: A control group was treated only with the carrier according to a twice weekly treatment scheme.
When the 28-day treatment period had ended, a post-mortem was carried out on the mice. […] The kidneys of all the animals in the test groups were removed by operation, fixed in formalin according to standard methods, embedded in paraffin and processed for HE staining.

[1] = dose range used (450-540 mg/kg)
[2] = extrapolated, ip twice weekly over 4 weeks
[3] = kidney histology after 28-day twice weekly ip treatment, equimolar to 450 mg of stock composition, affected/animals

CN(C)/N=N/c1ccc(C(=O)c2ccc(OCCC(=O)NCC(=O)[O-])cc2)cc1.[Na+] [Example 2a]
solubility (Solubility in water; 25° C., read-out: solubility in water at 25° C.): 500 mg/mL
solubility (Solubility in water; room temperature (25° C.), read-out: water solubility at room temperature (25° C.)): 500 mg/mL
Max. effect (MAXF 401; 300-540 mg/kg ip twice weekly, 28 d, ***): Remission ***
ED50 (MAXF 401; Mus musculus, MAXF401, 672 h, ip twice weekly over 4 weeks, read-out: ED50 of the anti-tumour action): 450 mg/kg
effect at the highest dose (MAXF 401; highest dose, ip twice weekly over 4 weeks): remission of the tumours
ED90 of the anti-tumour action (MAXF 401; ip twice weekly over 4 weeks): 500 mg/kg
threshold dose of the anti-tumour action (MAXF 401; ip twice weekly over 4 weeks): 300 mg/kg
Max. effect (Inhibition) (BXF 1218): Inhibition <50% n.s.
anti-tumour action (CXF 280; 450, 500 or 540 mg/kg ip twice weekly over 4 weeks, all doses): pronounced anti-tumour action
Max. effect (CXF 280; 450-540 mg/kg ip twice weekly, 28 d, ***): Remission ***
ED50 (CXF 280; Mus musculus, 672 h, extrapolated, ip twice weekly over 4 weeks): 390 mg/kg
tolerability (CXF 280; [1]): well tolerated
weight loss in the animals (CXF 280; [1]): not associated with a significant weight loss
ED20 (CXF 280; [2]): 330 mg/kg
ED90 (CXF 280; [2]): 490 mg/kg
Max. effect (Inhibition) (HNXF 536): Inhibition <50% **
Max. effect (Inhibition) (LXFL 529): Inhibition <50% *
Max. effect (MEXF 462; 100-540 mg/kg ip twice weekly, 28 d, ***): Remission ***
tumour volume in % of the tumour volume at the beginning of the test, Mean (MEXF 462; day 0): 100%
tumour volume in % of the tumour volume at the beginning of the test, Mean (MEXF 462; day 3): 316%
tumour volume in % of the tumour volume at the beginning of the test, Mean (MEXF 462; day 7): 240%
tumour volume in % of the tumour volume at the beginning of the test, Mean (MEXF 462; day 11): 187%
tumour volume in % of the tumour volume at the beginning of the test, Mean (MEXF 462; day 14): 166%
tumour volume in % of the tumour volume at the beginning of the test, Mean (MEXF 462; day 18): 83%
tumour volume in % of the tumour volume at the beginning of the test, Mean (MEXF 462; day 21): 67%
tumour volume in % of the tumour volume at the beginning of the test, Mean (MEXF 462; day 25): 40%
tumour volume in % of the tumour volume at the beginning of the test, Mean (MEXF 462; day 28): 30%
outcome of treatment (MEXF 462; equimolar doses ip twice weekly over 4 weeks): partial remission
Max. effect (Inhibition) (MEXF 276): Inhibition >50% ***
Max. effect (PAXF 1657): No anti-tumour
Max. effect (Inhibition) (PRXF 22RV1): Inhibition <50% **
Max. effect (Inhibition) (PRXF DU145): Inhibition >50% **
Max. effect (Inhibition) (UXF 1138): Inhibition >50% **
macroscopic findings of the kidneys at post-mortem (Tumour-carrying mice; after 28-day treatment period): without pathological findings
Acute single-cell necrosis (Tumour-carrying mice; [3]): 0/9
Focal tubular necrosis (Tumour-carrying mice; [3]): 0/9
